Test results from US20050025821A1, “Lipid-comprising drug delivery complexes and methods for their production” (priority 2001, published 2005).
Non-standard residues stand in square brackets, D forms with d. Residues, ends and D or L forms follow the SMILES beside them. No end group written: not given here.

Tests used:
KB cells [1] = test: Effect of lysomotrophic agent on PPAA-mediated transfection; assay type: cell-based; settings: added half an hour prior to LPD
Method: Lysomotrophic agent, either chloroquine (an anti-malarial drug, weak base protonated in endosome) or bafilomycin A (a specific ATPase inhibitor which reduces the amount of protons entering the endosome), capable of preventing endosomal acidification, were added in varying amounts to the transfection mixture half and hour prior to LPD addition to the cells.

[2] = MTLP peptide stability in serum over time (HPLC-UV); assay type: in vitro ADME, mouse; settings: 37° C.; for stability in mouse serum (recovery by HPLC-UV): 1 mg/mL peptide + equal volume mouse serum, 10-120 min
Method: The MTLP peptide solutions were prepared at 1 mg/mL and 20 μL aliquots placed in tubes. To one set of tubes an equal volume of mouse serum was added and to a second set 0.9% saline solution was added as negative a control. The tubes were incubated at 37° C. A control and a sample tube were removed at various timepoints (10, 30, 60 and 120 min) and any reaction quenched using 70:30 acetonitrile:water (160 μL). Each quenched sample was then analysed by HPLC-UV at 220 nm with a C18 column (5 μm, 300Å, 250×4.6 mm id) for 45 minutes. Mobile phase A was 10:90 acetonitrile: 0.1% trifluoroacetic acid in water and mobile phase B was 0.1% trifluoroacetic acid in acetonitrile.

MDA-MB-231 cells = test: Competition assays of ligand-mediated transfection; assay type: cell-based, human; settings: 0.1 μg DNA/well; for effect of 1000-fold excess of free peptide on DSPE-PEG5K-RGD mediated transfection: 10 mol % DSPE-PEG5K-RGD LPD
Method: Three competitions assays were performed using MDA-MB-231 cells in order to assess specificity of transfection-mediated-[…] (SEQ ID NO:10) or DSPE-PEG5K-RGD (SEQ ID NO:11). Transfections were performed as described above except that the culture media was supplemented with free LHRH or RGD peptides, or antibody against the LHRH or the integrin receptor as competition agents. 10 mol % pegylated lipid or targeting factor-pegylated lipid conjugate was used for each experiment.
The first competition assay was performed using 1 μg DNA/well. This DNA concentration required a high concentration of free LHRH to achieve a 100 fold excess of free LHRH which was toxic for the cells. Similarly, with the RGD formulation, this DNA concentration required a high concentration of free RGD in order to achieve 100 fold excess of free RGD (3.25 μl of dansyl-labeled RGD ((Integrated Biomolecule Corporation, Tucson, Ariz.) from a solution at 5 mg/ml in H2O) which was toxic for the cells.
In order to decrease LHRH associated toxicity, a second competition assay was performed using 0.1 μg DNA/well (FIGS. 6A and 6B). 0.1 μg DNA/well corresponds to 862.62 ng DSPE-PEG5K-LHRH (SEQ ID NO:10) or 168.6 ng of LHRH/well using a 12 nmol:1 μg lipid:DNA ratio and 10 mol % DSPE-PEG5K-LHRH (SEQ ID NO:10) in the total lipids in the formulation. Transfections were performed as described above. The second competition assay was performed using 17.5 μg/well (5 μl) of anti-LHRH receptor F1G4, and 15 μg/well (50 μl) of anti-LHRH receptor A9E4 from Biogenesis (Kingston, N.H.). The appropriate isotype match antibody (17.5 μg/well), anti-CD3 IgG1K (Pharmingen, San Diego, Calif.), was used as a control. Additionally, a 100-fold and 1000 fold excess of LHRH was tested as a competition agent: the media was supplemented with 6.5 μl or 65 μl of a stock solution of 2.5 mg/ml of [D-Trp]-LHRH from Sigma (St. Louis, Mo.). Moreover, in this particular experiment, 2 anti-LHRH receptor polyclonal serums were tested: 5 μl/well of a rabbit serum anti-LHRH receptor (Biogenesis, Kingston, N.H.) and 50 μl/well sheep serum anti-LHRH receptor (Biogenesis, Kingston, N.H.). The corresponding volumes of control serum were used as an isotype control. Control serums were purchased from Sigma (St. Louis, Mo.).
LPDs were also directly incubated with an anti-LHRH antibody or an isotype control (Anti-IgG) antibody before addition of LPDs to cells in order to block the LHRH molecule on the LPD surface (data not shown). Briefly, 6.67 μl of 1/10 diluted DSPE-PEG5K-LHRH LPDs at 150 μg DNA/ml were mixed with 50 μl of mouse anti-LHRH antibody or control (Dako Corporation, Carpinteria, Calif.) and incubated for 1 h at room temperature prior to transfection as described above. […]

KB cells [3] = test: In vitro transfection (luciferase expression); assay type: cell-based; settings: 1 μg DNA/well
Method: The following day, the media was removed and replaced with 500 μl of fresh serum-free media.

HepSK1 cells = test: In vitro transfection (luciferase expression); assay type: cell-based, human; settings: Hep-SK 1 (non-ASGPR), 100 μM ligand, 1 μg DNA
Method: (§1) For in vitro cell testing of the galactosylated peptides, the following cell lines were used: HepG2 (ATCC, Manassas, Va.): Hepatocarcinoma cell line expressing the asialyglycoprotein (ASGP) receptor. […] These two cell lines were tested for the presence of the ASGP receptor by westen blotting with an anti-asialoglycoprotein receptor antibody from Calbiochem (Nottingham, UK). This confirmed the presence of the receptor in HepG2 cells and the absence of the receptor from Hep-SK1 cells (data not shown).
(§2) The formulations were incubated with the cells for 4 h, at which point the formulations were aspirated and fresh serum containing complete medium was added to the cells. Cells were harvested 48 h post transfection and were assayed for total cell protein expression and luciferase reporter gene expression. […] Thus, multifunctional targeting factors such as galactose-Elan094 (SEQ ID NO:6) can increase transfection activity over a single fimctional targeting factor.
In vitro cell transfections were carried out as described supra in a number of cell types. […] The results for two different cell types, a human liver cell line (HepSK1) and a human breast cell line (MDA-MB-231), are shown in Tables 7 and 8.

HepG2 cells = test: In vitro transfection (luciferase expression); assay type: cell-based; settings: for transfection with DC-Chol:DOPE LPDs containing ligand: HepG2 (ASGPR bearing), 100 μM ligand, 1 μg DNA
Method: 16-24 hr prior to transfection, 5×10^4 cells (MDA-MB-231, LL/2 or HepG-2 (ATCC, Manassas, Va.)) in 500 μl/well of appropriate media (ATCC catalog describes appropriate media for each cell type) containing 10% FBS were seeded in a 48 well plate (Costar, Coming, N.Y.) and incubated overnight at 37° C. in 5% or 10% CO2. The following day, the media was removed and replaced with 500 μl of fresh serum-free media. […] After transfection, luciferase activity was assayed as described (Promega Luciferase Assay Kit, Cat. No. E1501, Madison, Wis.). Briefly, the cell culture media was removed and replaced by fresh media containing 10% FBS, and the cells were incubated at 37° C. in 5% or 10% CO2 for a further 48 h. Each well was washed with 1 ml PBS 0.095 M pH7.4 (Biowhittaker, Walkersville, Md.) and suspended in 200 μl of 1× luciferase reporter buffer (RLB) (Promega, Madison, Wis.). The cells were then subject to 3 cycles of freeze/thaw at −70° C./37° C., respectively. Cells were harvested and spun for 10 min at 14,000 rpm. 20 μl of the supernatant was assayed for luciferase activity by addition of 100 μl of luciferase substrate (Promega, Madison, Wis.), followed by a 10 sec incubation time at room temperature before luminescence relative units were measured using a Berthold (Aliquippa, Pa. autolumat B953 luminometer. The total protein concentration per sample was determined using a commercial kit of Coomassie plus dye (Pierce, Rockford, Ill.).
as §1, §2

[4] = biological target: LHRH receptor on MDA-MB-231, SKOV3-IP1 and H-69 cells (human) (UniProt P30968); test: cell-based or functional assay
LHRH receptor on MDA-MB-231, SKOV3-IP1 and H-69 cells (human), sequence (P30968 whole entry): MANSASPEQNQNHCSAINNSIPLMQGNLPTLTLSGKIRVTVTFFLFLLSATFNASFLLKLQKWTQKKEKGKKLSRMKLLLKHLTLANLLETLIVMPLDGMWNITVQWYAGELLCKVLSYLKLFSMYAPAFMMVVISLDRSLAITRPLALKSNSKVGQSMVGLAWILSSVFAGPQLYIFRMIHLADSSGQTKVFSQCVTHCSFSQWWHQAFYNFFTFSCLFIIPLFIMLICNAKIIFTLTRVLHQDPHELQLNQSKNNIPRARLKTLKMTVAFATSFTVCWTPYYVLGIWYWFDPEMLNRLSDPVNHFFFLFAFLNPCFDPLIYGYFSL

## CO/C1=C\C(C)=C\[C@@H](C)[C@@H](O)[C@@H](C)C/C(C)=C/C=C/[C@H](OC)[C@@H]([C@@H](C)[C@@H](O)[C@H](C)[C@@]2(O)C[C@@H](O)[C@H](C)[C@@H](C(C)C)O2)OC1=O [Bafilomycin A, bafilomycin A]
KB cells [1]; 10 ng/well
  effect on PPAA-mediated transfection: appeard to block PPAA-mediated transfection

## H-KKKAAAVLLPVLLAAP [ZElan094]
[2]
  stability in mouse serum (recovery by HPLC-UV): degrades in mouse serum over 2 hr
  ligand still detectable at 30 minutes following incubation in mouse serum: up to 60%
  start of degradation in mouse serum: > 10 min

## GRGDNP
MDA-MB-231 cells
  effect of 1000-fold excess of free peptide on DSPE-PEG5K-RGD mediated transfection: inhibition of transfection activity

## CCN(CC)CCCC(C)Nc1ccnc2cc(Cl)ccc12 (stereo not shown) [Chloroquine, chloroquine]
KB cells [1]; 1600 nM
  effect on PPAA-mediated transfection: blocked PPAA-mediated transfection

## RRRRRRRH
KB cells [3]
  increase in transfection activity when formulated with CHEMS:DOPE compared to peptide-compacted DNA alone: 2 fold

## H2N-KKKAAAVLLPVLLAAPREDL (H-KKKAAAVLLPVLLAAPREDL) [ZElan094R]
HepSK1 cells
  transfection with DC-Chol:DOPE LPDs containing ligand: no increase in transfection
HepG2 cells
  transfection with DC-Chol:DOPE LPDs containing ligand: Increased transfection

## S(Galactose)KKAAAVLLPVLLAAP [GElan094]
HepSK1 cells
  transfection with DC-Chol:DOPE LPDs containing ligand: no increase in transfection
HepG2 cells
  transfection with DC-Chol:DOPE LPDs containing ligand: Increased transfection

## [D-Trp]-LHRH from Sigma (from UniProt P01148 24-33) (peptide)
[4]
  luciferase expression in MDA-MB-231 cells after transfection with LPDs containing 10 mol % DSPE-PEG5K-LHRH, free LHRH in the medium as competition agent: 1000 fold

## GRGESP
MDA-MB-231 cells
  effect of 1000-fold excess of free peptide on DSPE-PEG5K-RGD mediated transfection: did not inhibit transfection activity

## CC(C)C[C@@H](NC(=O)[C@@H](CC(C)C)NC(=O)[C@H](NC(=O)[C@H]1CCCN1C(=O)[C@@H](CC(C)C)NC(=O)[C@@H](CC(C)C)NC(=O)[C@H](NC(=O)[C@@H](C)NC(=O)[C@@H](C)NC(=O)[C@@H](CCCCN)NC(=O)[C@@H](CCCCN)NC(=O)[C@H](N)CCCCN)C(C)C)C(C)C)C(=O)N[C@H](C)C(=O)N[C@H](C)C(=O)N1CCC[C@@H]1C(=O)O [ZElan207, H2N-kkkaavllpvllaap] (H-[dK][dK][dK][dA][dA][dV][dL][dL][dP][dV][dL][dL][dA][dA][dP]-OH; C-terminus assumed)
[2]
  stability in mouse serum (recovery by HPLC-UV): stable in mouse serum up to 2 h

## des-Pro-KKAAAVLLPVLLAAS-Galactose [Elan094G]
HepSK1 cells
  transfection with DC-Chol:DOPE LPDs containing ligand: no increase in transfection
HepG2 cells; DC-chol:DOPE LPDs, dose titration (FIG. 14)
  dose giving optimal transfection: 50 µM
HepG2 cells
  transfection with DC-Chol:DOPE LPDs containing ligand: Increased transfection

## GRGDSP
MDA-MB-231 cells
  effect of 1000-fold excess of free peptide on DSPE-PEG5K-RGD mediated transfection: inhibition of transfection activity

## LHRH: free LHRH used as competition agent, [D-Trp]-LHRH from Sigma (QHWSYGLRPG; not fully specified (residue 1, C-terminus); ends and bridges not checked; also: D-Trp, position not given here)
MDA-MB-231 cells; 10 mol % DSPE-PEG5K-LHRH LPD
  effect of 1000-fold excess of free LHRH on DSPE-PEG5K-LHRH mediated transfection: clear inhibition of transfection activity
